Experiments:
[1] = biological target: T1, Human Mineralocorticoid Receptor (hMR) (Homo sapiens, UniProt P08235); assay: Inhibition of binding of hMR and [3H]-aldosterone (hMR lysate, charcoal separation); details: test compound at 10^−5 M; 10 nM [3H]-aldosterone; hMR lysate; 16 hr at 4° C.; read-out: Inhibition rate (at 10^−5 M)
T1 construct: To obtain the full-length hMR cDNA, pB-hMR (i) was digested with XhoI and PvuI; expressed in transfected cells; host or cells: FreeStyle 293 cells transiently transfected with pMCMVneo-hMR; supernatant of the freeze-thaw lysate (hMR lysate)
T1 sequence (P08235 1-984): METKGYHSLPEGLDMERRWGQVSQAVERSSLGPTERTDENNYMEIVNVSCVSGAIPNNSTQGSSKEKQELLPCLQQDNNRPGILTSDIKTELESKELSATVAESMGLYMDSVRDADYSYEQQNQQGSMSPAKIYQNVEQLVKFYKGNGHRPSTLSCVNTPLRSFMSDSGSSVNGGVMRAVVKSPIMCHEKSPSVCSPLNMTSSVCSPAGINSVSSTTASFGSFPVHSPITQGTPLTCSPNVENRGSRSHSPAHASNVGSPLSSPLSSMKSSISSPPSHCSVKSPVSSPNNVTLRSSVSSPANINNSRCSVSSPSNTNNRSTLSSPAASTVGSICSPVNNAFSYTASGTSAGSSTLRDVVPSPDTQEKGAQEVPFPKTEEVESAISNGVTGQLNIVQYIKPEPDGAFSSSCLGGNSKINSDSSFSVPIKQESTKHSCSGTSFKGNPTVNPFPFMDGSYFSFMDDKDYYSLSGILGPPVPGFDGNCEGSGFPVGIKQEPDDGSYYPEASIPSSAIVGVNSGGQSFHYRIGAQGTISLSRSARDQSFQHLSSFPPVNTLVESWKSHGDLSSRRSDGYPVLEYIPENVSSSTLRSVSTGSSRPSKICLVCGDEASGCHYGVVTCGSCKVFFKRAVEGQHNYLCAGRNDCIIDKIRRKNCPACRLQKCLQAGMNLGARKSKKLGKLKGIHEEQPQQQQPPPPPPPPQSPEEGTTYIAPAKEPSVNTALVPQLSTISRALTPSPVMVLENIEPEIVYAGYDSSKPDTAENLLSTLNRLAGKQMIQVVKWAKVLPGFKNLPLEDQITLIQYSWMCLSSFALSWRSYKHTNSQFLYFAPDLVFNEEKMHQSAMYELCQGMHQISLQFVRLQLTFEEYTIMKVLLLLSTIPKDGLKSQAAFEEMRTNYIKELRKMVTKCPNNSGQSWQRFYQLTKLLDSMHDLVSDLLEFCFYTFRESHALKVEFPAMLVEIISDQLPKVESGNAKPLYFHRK
Procedure: The following procedures described in this Example were carried out according to the methods described in Molecular Cloning—Cold Spring Harbor Laboratory (1989) or protocols specified by manufacturers.
(1) Cloning of Human Mineralocorticoid Receptor (hMR) cDNA
hMR cDNA was amplified by polymerase chain reaction (PCR) from human kidney cDNA library. Full-length cDNA was constructed from two fragments of hMR cDNA amplified separately. The primers were designed referring to the nucleotide sequence of hMR cDNA reported by Arriza et. al (Science 1987; 237: 268-275).
The PCR reactions were carried out using PyrobestR® DNA polymerase (Takara). The PCR products were electrophoresed in agarose gel, and 1.7 kb (region (i)) and 1.5 kb (region (ii)) DNA fragments were recovered. Each DNA fragment was inserted into pCR®4Blunt-TOPO® vector (Invitrogen). The resulting plasmids thus obtained were designated as pB-hMR (i) and pB-hMR (ii). To obtain the full-length hMR cDNA, pB-hMR (i) was digested with XhoI and PvuI, and pB-hMR (ii) was digested with PvuI and KpnI, respectively, and the two cDNA fragments were ligated into pBlueScript®IISK+ vector (Stratagene). The resulting plasmid thus obtained was designated as pB-hMR.
pMCMVneo (described in WO03/099793) was digested with XhoI and KpnI, and 5.6 kb fragment was ligated with 2.9 kb hMR cDNA fragment obtained by digestion of pB-hMR (described in above (1)) with XhoI and KpnI. The plasmid thus obtained was designated as pMCMVneo-hMR.
FreeStyle 293 cells were inoculated at 3×10^8 cells in 270 ml FreeStyle™ 293 Expression Medium (Invitrogen) in a 1000 ml Erlenmeyer flask. The cells were treated with 30 ml of the transfection mixture containing 300 μg of pMCMVneo-hMR obtained in above (2) and 400 μl of 293fectin™ Reagent (Invitrogen). The transfected cells were cultivated for 48 hr at 37° C. in 8% CO2 atmosphere at 125 rpm. The cultivated cells were centrifuged and washed with TEG buffer (10 mM Tris-HCl (pH 7.2), 50 mM EDTA, 10% glycerol), and resuspended in 10 ml TEGM buffer (10 mM Tris-HCl (pH 7.2), 1 mM EDTA, 10% glycerol, 1 mM β-mercaptoethanol, 10 mM sodium molybdate, 1 mM dithiothreitol, 2 tablets/100 ml of protease inhibitor cocktail tablets (Roche)). The cell suspension was frozen with liquid nitrogen and thawed on ice, and ultra-centrifuged at 186,000×g for 20 min at 4° C. The supernatant fraction including hMR (hMR lysate) was collected and stored at −80° C.
(4) Measurement of Inhibition Activity Against Binding of hMR and Aldosterone
[^3H]-Aldosterone (Amersham Biosciences) as ligand was added at 10 nM to the reaction mixture including test compound at various concentration and hMR lysate (lot.19: 0.675 mg/mL, lot.20: 0.675 mg/mL, lot.21: 0.765 mg/mL, lot.22: 0.900 mg/mi, lot.23: 0.750 mg/mL) obtained in above (3) and mixture was filled up to 50.5 μl with TEGM buffer. The reaction mixture was incubated for 16 hr at 4° C. and 35 μl of dextran/gelatin coated charcoal suspension (5% charcoal, 0.5% dextran T-70 (Amersham Biosciences), 0.1% gelatin (SIGMA), 10 mM Tris HCl (pH 7.2), 1 mM EDTA) was added thereto to separate bound and free radioactive aldosterone. The mixture containing charcoal was incubated for 10 min at 4° C. and centrifuged at 910×g for 10 min at 4° C.
Radioactivity in 30 μl of the supernatant was measured by TopCount™ (Packard).
For the determination of nonspecific binding, cold Aldosterone instead of drug was added to reaction mixture at 100 μM. Specific binding was determined by subtracting nonspecific binding from total binding.

inhibition at 10 µM [1] [%]	melting point [°C]	SMILES
≥ 90		Cc1nn(C)c(-c2ccc(F)cc2)c1-c1ccc2c(c1)NC(=O)CO2 [Example 1, 6-[5-(4-Fluorophenyl)-1,3-dimethyl-1H-pyrazol-4-yl]-2H-1,4-benzoxazin-3(4H)-one]
≥ 90		Cc1nn(CCS(C)(=O)=O)c(-c2ccc(F)cc2)c1-c1ccc2c(c1)NC(=O)CO2 [Example 6, 6-{5-(4-Fluorophenyl)-3-methyl-1-[2-(methylsulfonyl)ethyl]-1H-pyrazol-4-yl}-2H-1,4-benzoxazin-3(4H)-one]
≥ 90		Cc1nn(CCC(F)(F)CO)c(-c2ccc(F)cc2)c1-c1ccc2c(c1)NC(=O)CO2 [Example 25, 6-[1-(3,3-Difluoro-4-hydroxybutyl)-5-(4-fluorophenyl)-3-methyl-1H-pyrazol-4-yl]-2H-1,4-benzoxazin-3(4H)-one]
	260.2 to 260.5	Cc1nn(C)c(-c2ccc(F)cc2)c1-c1cc(Cl)c2c(c1)NC(=O)CO2 [Example 32, 8-Chloro-6-[5-(4-fluorophenyl)-1,3-dimethyl-1H-pyrazol-4-yl]-2H-1,4-benzoxazin-3(4H)-one]
≥ 90		Cc1nn(CC(C)(F)F)c(-c2ccc(F)cc2)c1-c1ccc2c(c1)NC(=O)CO2 [Example 83, 6-[1-(2,2-Difluoropropyl)-5-(4-fluorophenyl)-3-methyl-1H-pyrazol-4-yl]-2H-1,4-benzoxazin-3(4H)-one]
≥ 90		CC(=O)Cn1nc(C)c(-c2ccc3c(c2)NC(=O)CO3)c1-c1ccc(F)cc1 [Example 87, 6-[5-(4-Fuorophenyl)-3-methyl-1-(2-oxopropyl)-1H-pyrazol-4-yl]-2H-1,4-benzoxazin-3(4H)-one]
≥ 90		Cc1nn(CC(F)(F)CO)c(-c2ccc(F)cc2)c1-c1ccc2c(c1)NC(=O)CO2 [Example 109, 6-[1-(2,2-Difluoro-3-hydroxypropyl)-5-(4-fluorophenyl)-3-methyl-1H-pyrazol-4-yl]-2H-1,4-benzoxazin-3(4H)-one]
≥ 90		Cc1nn(CC(C)(C)CO)c(-c2ccc(F)cc2)c1-c1ccc2c(c1)NC(=O)CO2 [Example 125, 6-[5-(4-Fluorophenyl)-1-(3-hydroxy-2,2-dimethylpropyl)-3-methyl-1H-pyrazol-4-yl]-2H-1,4-benzoxazin-3(4H)-one]
≥ 90		Cc1nn(CC2CCOC2)c(-c2ccc(F)cc2)c1-c1ccc2c(c1)NC(=O)CO2 (stereo not drawn) [Example 146, 6-[5-(4-Fluorophenyl)-3-methyl-1-(tetrahydrofuran-3-ylmethyl)-1H-pyrazol-4-yl]-2H-1,4-benzoxazin-3(4H)-one]
≥ 90		Cc1nn(C[C@@H]2CCC(=O)O2)c(-c2ccc(F)cc2)c1-c1ccc2c(c1)NC(=O)CO2 [Example 159, 6-[5-(4-Fluorophenyl)-3-methyl-1-{[(2S)-5-oxotetrahydrofuran-2-yl]methyl}-1H-pyrazol-4-yl]-2H-1,4-benzoxazin-3(4H)-one]

The next lines start with the molecule.

SMILES	inhibition at 10 µM [1] [%]	melting point [°C]
CC(=O)OCC(F)(F)Cn1nc(C)c(-c2ccc3c(c2)NC(=O)CO3)c1-c1ccc(F)cc1 [Example 26, 2,2-Difluoro-3-[5-(4-fluorophenyl)-3-methyl-4-(3-oxo-3,4-dihydro-2H-1,4-benzoxazin-6-yl)-1H-pyrazol-1-yl]propyl acetate]	≥ 90	
Cc1nn(CC(F)(F)CO)c(-c2ccc(F)cc2)c1-c1ccc2c(c1C)NC(=O)CO2 [Example 128, 6-[1-(2,2-Difluoro-3-hydroxypropyl)-5-(4-fluorophenyl)-3-methyl-1H-pyrazol-4-yl]-5-methyl-2H-1,4-benzoxazin-3(4H)-one]	≥ 90	
Cc1nn(Cc2cccnc2)c(-c2ccc(F)cc2)c1-c1ccc2c(c1)NC(=O)CO2 [Example 135, 6-[5-(4-Fluorophenyl)-3-methyl-1-(pyridin-3-ylmethyl)-1H-pyrazol-4-yl]-2H-1,4-benzoxazin-3(4H)-one]	≥ 90	
[2H]C1([2H])Oc2ccc(-c3c(C)nn(CC(C)(F)F)c3-c3ccc(F)cc3)cc2NC1=O [Example 174]		205 to 206
CCOC(=O)CCC(=O)OCC(F)(F)Cn1nc(C)c(-c2ccc3c(c2)NC(=O)CO3)c1-c1ccc(F)cc1 [Example 185, 2,2-Difluoro-3-[5-(4-fluorophenyl)-3-methyl-4-(3-oxo-3,4-dihydro-2H-1,4-benzoxazin-6-yl)-1H-pyrazol-1-yl]propyl ethyl butanedioate]		100
CCCCCCCCCCCCCCCC(=O)OCC(F)(F)Cn1nc(C)c(-c2ccc3c(c2)NC(=O)CO3)c1-c1ccc(F)cc1 [Example 186, 2,2-Difluoro-3-[5-(4-fluorophenyl)-3-methyl-4-(3-oxo-3,4-dihydro-2H-1,4-benzoxazin-6-yl)-1H-pyrazol-1-yl]propyl hexadecanoate]		106
CCOC(=O)OCC(F)(F)Cn1nc(C)c(-c2ccc3c(c2)NC(=O)CO3)c1-c1ccc(F)cc1 [Example 187, 2,2-Difluoro-3-[5-(4-fluorophenyl)-3-methyl-4-(3-oxo-3,4-dihydro-2H-1,4-benzoxazin-6-yl)-1H-pyrazol-1-yl]propyl ethyl carbonate]		142
CNC(=O)OCC(F)(F)Cn1nc(C)c(-c2ccc3c(c2)NC(=O)CO3)c1-c1ccc(F)cc1 [Example 198, 2,2-Difluoro-3-[5-(4-fluorophenyl)-3-methyl-4-(3-oxo-3,4-dihydro-2H-1,4-benzoxazin-6-yl)-1H-pyrazol-1-yl]propyl methylcarbamate]		112
